Reference: US6610273B2, “Process for making chemically stable C-17/21 OH 20-ketosteroid aerosol products” (3M Innovative Properties Company, priority 1999, dated 2003)
One block for each compound: values may come before it.

What was measured:
[1] = format: physicochemical
Method: (§1) At ambient temperature, a 3 mL ethanol solution of budesonide (0.007 M) was mixed with 0.1 g of aluminum oxide (Aldrich, neutral, activated Brockmann I, 150 mesh), which mimics aluminum oxide existing on the inner surface of aluminum containers. Each aliquot was filtered with a syringe filter and diluted with acetonitrile by 20 times for HPLC analysis to determine the recovery of budesonide with respect to the initial concentration. The recoveries of budesonide were compared with a reference, which contained the same concentration of budesonide but in ethanol solution without aluminum oxide.
as §1, with “triamcinolone acetonide” for “budesonide”
as §1, with “dexamethasone” for “budesonide”, “aliquote” for “aliquot”, “recoveries” for “recovery”, “inital” for “initial”

[2] = cited from earlier work; for Chemical stability of solution MDI formulation (in words): solution formulations, HFC propellant, prior publications
[3] = Solubility testing of budesonide in P134a and P227 formulations at approximately 5° C.; format: physicochemical

Degradation rate in ethanol/Al2O3 relative to isomer 21-BMP (17-OH) [1]: about 100 times
Structure (SMILES): CCC(=O)O[C@]1(C(=O)CO)[C@@H](C)C[C@H]2[C@@H]3CCC4=CC(=O)C=C[C@]4(C)[C@@]3(Cl)[C@@H](O)C[C@@]21C [beclomethasone 17-monopropionate]

Budesonide Solubility, MEAN ([3]; P134a, 5° C.): 0.012 mg/g
Budesonide Solubility, sample 1 ([3]; P134a, 5° C.): 0.013 mg/g
Budesonide Solubility, sample 2 ([3]; P134a, 5° C.): 0.010 mg/g
Budesonide Solubility, MEAN ([3]; P134a/5% EtOH, 5° C.): 0.465 mg/g
Budesonide Solubility, sample 1 ([3]; P134a/5% EtOH, 5° C.): 0.459 mg/g
Budesonide Solubility, sample 2 ([3]; P134a/5% EtOH, 5° C.): 0.471 mg/g
Budesonide Solubility, MEAN ([3]; P134a/10% EtOH, 5° C.): 1.382 mg/g
Budesonide Solubility, sample 1 ([3]; P134a/10% EtOH, 5° C.): 1.370 mg/g
Budesonide Solubility, sample 2 ([3]; P134a/10% EtOH, 5° C.): 1.394 mg/g
Budesonide Solubility, MEAN ([3]; P134a/15% EtOH, 5° C.): 2.699 mg/g
Budesonide Solubility, sample 1 ([3]; P134a/15% EtOH, 5° C.): 2.686 mg/g
Budesonide Solubility, sample 2 ([3]; P134a/15% EtOH, 5° C.): 2.711 mg/g
Budesonide Solubility, MEAN ([3]; P134a/20% EtOH, 5° C.): 4.360 mg/g
Budesonide Solubility, sample 1 ([3]; P134a/20% EtOH, 5° C.): 4.329 mg/g
Budesonide Solubility, sample 2 ([3]; P134a/20% EtOH, 5° C.): 4.390 mg/g
Budesonide Solubility, MEAN ([3]; P227, 5° C.): 0.016 mg/g
Budesonide Solubility, sample 1 ([3]; P227, 5° C.): 0.017 mg/g
Budesonide Solubility, sample 2 ([3]; P227, 5° C.): 0.015 mg/g
Budesonide Solubility, MEAN ([3]; P227/5% EtOH, 5° C.): 0.657 mg/g
Budesonide Solubility, sample 1 ([3]; P227/5% EtOH, 5° C.): 0.652 mg/g
Budesonide Solubility, sample 2 ([3]; P227/5% EtOH, 5° C.): 0.661 mg/g
Budesonide Solubility, MEAN ([3]; P227/10% EtOH, 5° C.): 1.703 mg/g
Budesonide Solubility, sample 1 ([3]; P227/10% EtOH, 5° C.): 1.698 mg/g
Budesonide Solubility, sample 2 ([3]; P227/10% EtOH, 5° C.): 1.707 mg/g
Budesonide Solubility, MEAN ([3]; P227/15% EtOH, 5° C.): 2.98 mg/g
Budesonide Solubility, sample 1 ([3]; P227/15% EtOH, 5° C.): 2.952 mg/g
Budesonide Solubility, sample 2 ([3]; P227/15% EtOH, 5° C.): 3.008 mg/g
Budesonide Solubility, MEAN ([3]; P227/20% EtOH, 5° C.): 4.435 mg/g
Budesonide Solubility, sample 1 ([3]; P227/20% EtOH, 5° C.): 4.387 mg/g
Budesonide Solubility, sample 2 ([3]; P227/20% EtOH, 5° C.): 4.483 mg/g
Degradation in the presence of aluminum oxide (in words) [1]: almost totally consumed
Structure (SMILES): CCCC1O[C@@H]2C[C@H]3[C@@H]4CCC5=CC(=O)C=C[C@]5(C)[C@H]4[C@@H](O)C[C@]3(C)[C@]2(C(=O)CO)O1 (stereo partly drawn) [budesonide]

Degradation in the presence of aluminum oxide (in words) [1]: completely degrades
Structure (SMILES): C[C@@H]1C[C@H]2[C@@H]3CCC4=CC(=O)C=C[C@]4(C)[C@@]3(F)[C@@H](O)C[C@]2(C)[C@@]1(O)C(=O)CO [dexamethasone]

More lines, now with the values behind:

Structure (SMILES): CCC(=O)OCC(=O)[C@@]1(OC(=O)CC)[C@@H](C)C[C@H]2[C@@H]3CCC4=CC(=O)C=C[C@]4(C)[C@@]3(Cl)[C@@H](O)C[C@@]21C [beclomethasone dipropionate]
Chemical stability of solution MDI formulation (in words) [2]: surprisingly chemically stable

Structure (SMILES): CC(C)C(=O)OCC(=O)[C@@]12O[C@H](C3CCCCC3)O[C@@H]1C[C@H]1[C@@H]3CCC4=CC(=O)C=C[C@]4(C)[C@H]3[C@@H](O)C[C@@]12C [ciclesonide]
Chemical stability of solution MDI formulation (in words) [2]: surprisingly chemically stable

Structure (SMILES): CC1(C)O[C@@H]2C[C@H]3[C@@H]4CCC5=CC(=O)C=C[C@]5(C)[C@@]4(F)[C@@H](O)C[C@]3(C)[C@]2(C(=O)CO)O1 [triamcinolone acetonide]
Degradation in aqueous formulations (in words) ([2]; aqueous formulations in neutral or basic solutions, WO96/40042): undergo oxidative degradation catalyzed by trace levels of metal ions
